From US20250059180A1 (DONG WHA PHARM. CO., LTD., priority 2022, published 2025)
Read-outs that look alike come from different tables or passages of the source.

Test system: Pfeiffer cells, lymphoma cells having EZH2 mutation (A677G)
Assay: Proliferation inhibition of cells of hematologic malignancies (CCK-8, 11 days)
Assay type: cell-based
Conditions: 11 days culture, read-out: Cell proliferation inhibitory effect (IC50)
Procedure, shortened: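 Pfeiffer lymphoma cells (EZH2 A677G) in RPMI1640 with 10% FBS were seeded at 10,000 cells/well and exposed to test material for 11 days, with compound replaced every 3–4 days. Viability was read by CCK-8 absorbance at 450 nm, and IC50 was derived by non-linear regression curve fitting.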

Structure (SMILES)	IC50 (Homo sapiens, Pfeiffer, 264 h) [nM]	IC50 [nM]
COCCN(C)[C@H]1CC[C@H](C2(C)Oc3c(-c4ccc(N5C[C@@H](C)O[C@@H](C)C5)nc4)cc(C(=O)NCc4c(SC)cc(C)[nH]c4=O)c(C)c3O2)CC1 (stereo partly drawn) [Compound 24, 7-(6-((2S,6R)-2,6-dimethylmorpholino)pyridin-3-yl)-2-(trans-4-((2-methoxyethyl)(methyl)amino)cyclohexyl)-2,4-dimethyl-N-((6-methyl-4-(methylthio)-2-oxo-1,2-dihydropyridin-3-yl)methyl)benzo[d][1,3]dioxole-5-carboxamide]	≤ 10	–
CSc1cc(C)[nH]c(=O)c1CNC(=O)c1cc(-c2ccc(Cl)s2)c2c(c1C)OC(C)([C@H]1CC[C@H](N(C)C)CC1)O2 (stereo partly drawn) [Compound 19, 7-(5-chlorothiophen-2-yl)-2-(trans-4-(dimethylamino)cyclohexyl)-2,4-dimethyl-N-((6-methyl-4-(methylthio)-2-oxo-1,2-dihydropyridin-3-yl)methyl)benzo[d][1,3]dioxole-5-carboxamide]	≤ 10	–
CSc1cc(C)[nH]c(=O)c1CNC(=O)c1cc(-c2ccc(N3C[C@@H](C)O[C@@H](C)C3)nc2)c2c(c1C)OC(C)(C1CCN(C(C)C)CC1)O2 (single isomer, unassigned) [Compound 51]	–	≤ 10
CSc1cc(C)[nH]c(=O)c1CNC(=O)c1cc(-c2ccc(N3C[C@@H](C)O[C@@H](C)C3)nc2)c2c(c1C)OC(C)([C@H]1CC[C@H](N3CC(OCC(F)F)C3)CC1)O2 (stereo partly drawn) [Compound 103, 2-(trans-4-(3-(2,2-difluoroethoxy)azetidin-1-yl)cyclohexyl)-7-(6-((2S,6R)-2,6-dimethylmorpholino)pyridin-3-yl)-2,4-dimethyl-N-((6-methyl-4-(methylthio)-2-oxo-1,2-dihydropyridin-3-yl)methyl)benzo[d][1,3]dioxole-5-carboxamide]	≤ 10	–
CSc1cc(C)[nH]c(=O)c1CNC(=O)c1cc(-c2ccc(N3C[C@@H](C)O[C@@H](C)C3)nc2)c2c(c1C)OC(C)(C1CCN(CC(F)F)CC1)O2 (stereo partly drawn) [Compound 46, 2-(1-(2,2-difluoroethyl)piperidin-4-yl)-7-(6-((2S,6R)-2,6-dimethylmorpholino)pyridin-3-yl)-2,4-dimethyl-N-((6-methyl-4-(methylthio)-2-oxo-1,2-dihydropyridin-3-yl)methyl)benzo[d][1,3]dioxole-5-carboxamide]	≤ 10	–
CCN1CCC(C2(C)Oc3c(-c4cnc(N5CCOCC5)nc4)cc(C(=O)NCc4c(SC)cc(C)[nH]c4=O)c(C)c3O2)CC1 (single isomer, unassigned) [Compound 73, 2-(1-ethylpiperidin-4-yl)-2,4-dimethyl-N-((6-methyl-4-(methylthio)-2-oxo-1,2-dihydropyridin-3-yl)methyl)-7-(2-morpholinopyrimidin-5-yl)benzo[d][1,3]dioxole-5-carboxamide]	–	≤ 10
CCN1CCC(C2(C)Oc3c(-c4ccc(N5CCOCC5)nc4)cc(C(=O)NCc4c(SC)cc(C)[nH]c4=O)c(C)c3O2)CC1 (single isomer, unassigned) [Compound 66, 2-(1-ethylpiperidin-4-yl)-2,4-dimethyl-N-((6-methyl-4-(methylthio)-2-oxo-1,2-dihydropyridin-3-yl)methyl)-7-(6-morpholinopyridin-3-yl)benzo[d][1,3]dioxole-5-carboxamide]	–	≤ 10
CSc1cc(C)[nH]c(=O)c1CNC(=O)c1cc(-c2ccsc2)c2c(c1C)OC(C)([C@H]1CC[C@H](N(C)C)CC1)O2 (stereo partly drawn) [Compound 11, 2-(trans-4-(dimethylamino)cyclohexyl)-2,4-dimethyl-N-((6-methyl-4-(methylthio)-2-oxo-1,2-dihydropyridin-3-yl)methyl)-7-(thiophene-3-yl)benzo[d][1,3]dioxole-5-carboxamide]	≤ 10	–
CCN(C)[C@H]1CC[C@H](C2(C)Oc3c(-c4ccc(N5C[C@@H](C)O[C@@H](C)C5)nc4)cc(C(=O)NCc4c(SC)cc(C)[nH]c4=O)c(C)c3O2)CC1 (stereo partly drawn) [Compound 111, 7-(6-((2S,6R)-2,6-dimethylmorpholino)pyridin-3-yl)-2-(trans-4-(ethyl(methyl)amino)cyclohexyl)-2,4-dimethyl-N-((6-methyl-4-(methylthio)-2-oxo-1,2-dihydropyridin-3-yl)methyl)benzo[d][1,3]dioxole-5-carboxamide]	≤ 10	–
CSc1cc(C)[nH]c(=O)c1CNC(=O)c1cc(-c2ccc(N3C[C@@H](C)O[C@@H](C)C3)nc2)c2c(c1C)OC(C)([C@H]1CC[C@H](N(C)CC(F)F)CC1)O2 (some centres unmarked) [Compound 109]	≤ 10	–
CSc1cc(C)[nH]c(=O)c1CNC(=O)c1cc(-c2ccc(N3C[C@@H](C)O[C@@H](C)C3)nc2)c2c(c1C)OC(C)([C@H]1CC[C@H](N(C)CC3OCCO3)CC1)O2 (stereo partly drawn) [Compound 32, 2-(trans-4-(((1,3-dioxolan-2-yl)methyl)(methyl)amino)cyclohexyl)-7-(6-((2S,6R)-2,6-dimethylmorpholino)pyridin-3-yl)-2,4-dimethyl-N-((6-methyl-4-(methylthio)-2-oxo-1,2-dihydropyridin-3-yl)methyl)benzo[d][1,3]dioxole-5-carboxamide]	≤ 10	–
CSc1cc(C)[nH]c(=O)c1CNC(=O)c1cc(-c2cnc(N3CCOCC3)nc2)c2c(c1C)OC(C)(C1CCN(CC(F)(F)F)CC1)O2 (centres unmarked) [Compound 70, 2,4-dimethyl-N-((6-methyl-4-(methylthio)-2-oxo-1,2-dihydropyridin-3-yl)methyl)-7-(2-morpholinopyrimidin-5-yl)-2-(1-(2,2,2-trifluoro)piperidin-4-yl)benzo[d][1,3]dioxole-5-carboxamide]	–	≥ 100
CSc1cc(C)[nH]c(=O)c1CNC(=O)c1cc(-c2ccc(CN3CCOCC3)cc2)c2c(c1C)OC(C)([C@H]1CC[C@H](N(C)C)CC1)O2 (stereo partly drawn) [Compound 6, 2-(trans-4-(dimethylamino)cyclohexyl)-2,4-dimethyl-N-((6-methyl-4-(methylthio)-2-oxo-1,2-dihydropyridin-3-yl)methyl)-7-(4-(morpholinomethyl)phenyl)benzo[d][1,3]dioxole-5-carboxamide]	≤ 10	–
CCN1CCC(C2(C)Oc3c(-c4ccc(N5C[C@@H](C)O[C@@H](C)C5)nc4)cc(C(=O)NCc4c(SC)cc(C)[nH]c4=O)c(C)c3O2)CC1 (single isomer, unassigned) [Compound 50]	–	≥ 100
CSc1cc(C)[nH]c(=O)c1CNC(=O)c1cc(-c2ccc(N3C[C@@H](C)O[C@@H](C)C3)nc2)c2c(c1C)OC(C)(C1CCN(C(=O)C(F)(F)F)CC1)O2 (single isomer, unassigned) [Compound 59]	–	≤ 10
CSc1cc(C)[nH]c(=O)c1CNC(=O)c1cc(-c2ccc(N3C[C@@H](C)O[C@@H](C)C3)nc2)c2c(c1C)OC(C)(C1CCN(CC(F)F)CC1)O2 (single isomer, unassigned) [Compound 48]	–	≥ 100

The remaining lines, values ahead:

IC50 (Homo sapiens, Pfeiffer, 264 h) [nM]	IC50 [nM]	Structure (SMILES)
≤ 10	–	CSc1cc(C)[nH]c(=O)c1CNC(=O)c1cc(-c2cnc(N3C[C@@H](C)O[C@@H](C)C3)nc2)c2c(c1C)OC(C)(C1CCN(CC(F)(F)F)CC1)O2 (stereo partly drawn) [Compound 38, 7-(2-((2S,6R)-2,6-dimethylmorpholino)pyrimidin-5-yl)-2,4-dimethyl-N-((6-methyl-4-(methylthio)-2-oxo-1,2-dihydropyridin-3-yl)methyl)-2-(1-(2,2,2-trifluoroethyl)piperidin-4-yl)benzo[d][1,3]dioxole-5-carboxamide]
–	10 to 100	CCN(C)c1ccc(-c2cc(C(=O)NCc3c(SC)cc(C)[nH]c3=O)c(C)c3c2OC(C)(C2CCN(CC(F)(F)F)CC2)O3)cn1 (centres unmarked) [Compound 87, 7-(6-(ethyl(methyl)amino)pyridin-3-yl)-2,4-dimethyl-N-((6-methyl-4-(methylthio)-2-oxo-1,2-dihydropyridin-3-yl)methyl)-2-(1-(2,2,2-trifluoroethyl)piperidin-4-vi)benzo[d][1,3]dioxole-5-carboxamide]
≥ 100	–	CCCCN(C)c1ccc(-c2cc(C(=O)NCc3c(SC)cc(C)[nH]c3=O)c(C)c3c2OC(C)(C2CCN(CC(F)(F)F)CC2)O3)cn1 (centres unmarked) [Compound 98, 7-(6-(butyl(methyl)amino)pyridin-3-yl)-2,4-dimethyl-N-((6-methyl-4-(methylthio)-2-oxo-1,2-dihydropyridin-3-yl)methyl)-2-(1-(2,2,2-trifluoroethyl)piperidin-4-yl)benzo[d][1,3]dioxole-5-carboxamide]
≤ 10	–	CCN1CCN(c2ncc(-c3cc(C(=O)NCc4c(SC)cc(C)[nH]c4=O)c(C)c4c3OC(C)(C3CCN(CC(F)(F)F)CC3)O4)cn2)CC1 (centres unmarked) [Compound 75, 7-(2-(4-ethylpiperazin-1-yl)pyrimidin-5-yl)-2,4-dimethyl-N-((6-methyl-4-(methylthio)-2-oxo-1,2-dihydropyridin-3-yl)methyl)-2-(1-(2,2,2-trifluoroethyl)piperidin-4-yl)benzo[d][1,3]dioxole-5-carboxamide]
≤ 10	–	CSc1cc(C)[nH]c(=O)c1CNC(=O)c1cc(-c2ccc(N3CCSCC3)nc2)c2c(c1C)OC(C)(C1CCN(CC(F)(F)F)CC1)O2 (centres unmarked) [Compound 34, 2,4-dimethyl-N-((6-methyl-4-(methylthio)-2-oxo-1,2-dihydropyridin-3-yl)methyl)-7-(6-thiomorpholinopyridin-3-yl)-2-(1-(2,2,2-trifluoroethyl)piperidin-4-yl)benzo[d][1,3]dioxole-5-carboxamide]
≤ 10	–	CSc1cc(C)[nH]c(=O)c1CNC(=O)c1cc(-c2ccc(N3CCOCC3)nc2)c2c(c1C)OC(C)(C1CCN(CC(F)(F)F)CC1)O2 (centres unmarked) [Compound 61, 2,4-dimethyl-N-((6-methyl-4-(methylthio)-2-oxo-1,2-dihydropyridin-3-yl)methyl)-7-(6-morpholinopyridin-3-yl)-2-(1-(2,2,2-trifluoro)piperidin-4-yl)benzo[d][1,3]dioxole-5-carboxamide]
≤ 10	–	COc1ccc(-c2cc(C(=O)NCc3c(SC)cc(C)[nH]c3=O)c(C)c3c2OC(C)(C2CCN(CC(F)(F)F)CC2)O3)cn1 (centres unmarked) [Compound 36, 7-(6-methoxypyridin-3-yl)-2,4-dimethyl-N-((6-methyl-4-(methylthio)-2-oxo-1,2-dihydropyridin-3-yl)methyl)-2-(1-(2,2,2-trifluoroethyl)piperidin-4-yl)benzo[d][1,3]dioxole-5-carboxamide]
